Measurements reported in patent publication US20230373985A1 (Origenis Gmbh, priority 2020, published 2023).

Legend:
Type in all cases: biochemical
[1] = molecular target: T1, wt human TYK2, catalytic site (Homo sapiens, UniProt P29597); test: HTRF KinEASE assay, TYK2; details: 1 μM ATP; read-out: IC50, Activity Toward TYK2
T1 construct: wt human TYK2, catalytic site; purchased SignalChem
T1 sequence (P29597 897-1176 limits assumed): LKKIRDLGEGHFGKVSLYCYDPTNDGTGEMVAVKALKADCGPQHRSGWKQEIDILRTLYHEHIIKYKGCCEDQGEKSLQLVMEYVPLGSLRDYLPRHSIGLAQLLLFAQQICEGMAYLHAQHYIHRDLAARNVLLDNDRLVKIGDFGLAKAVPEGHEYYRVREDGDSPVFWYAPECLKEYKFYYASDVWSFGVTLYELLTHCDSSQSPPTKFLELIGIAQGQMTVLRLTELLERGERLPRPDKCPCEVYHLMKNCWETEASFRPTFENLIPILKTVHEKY
Procedure, shortened: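 HTRF KinEASE-TK readout with 1 μM biotinylated TK substrate in 1× kinase buffer, ≥30 min at room temperature, then antibody/streptavidin-XL665 detection for 60 min. TYK2 at 2 nM with 1 μM ATP; JAK2 at 1 nM with 100 μM ATP. Analysis uses emission ratios.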

[2] = molecular target: T2, wt human JAK1, catalytic site (Homo sapiens, UniProt P23458); test: HTRF KinEASE assay, JAK1; details: 2.5 μM ATP; read-out: IC50, Activity Toward JAK1
T2 construct: wt human JAK1, catalytic site; purchased ThermoFisher
Procedure, shortened: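 Two-step HTRF KinEASE assay: compound, kinase/biotinylated TK substrate and ATP were incubated at least 30 min at room temperature. Antibody plus streptavidin-XL665 was then added and plates were read after 60 min. Inhibition was derived from emission ratios according to the kit protocol.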

[3] = molecular target: T3, wt human JAK2, catalytic site (Homo sapiens, UniProt O60674); test: HTRF KinEASE assay, JAK2; details: assay format not given (Z'-LYTE or HTRF KinEASE); read-out: IC50, Activity Toward JAK2
T3 construct: wt human JAK2, catalytic site; purchased SignalChem
Method: Basic protocol for HTRF KinEASE assay (Cisbio/FRA) inhibitor studies involved two steps: • Enzymatic step: Addition of 4 μL of test compound in corresponding DMSO dilutions, 4 μL of kinase/substrate mixture, 2 μL of ATP into 384 well small volume plates. Incubation for at least 30 minutes at room temperature. • Detection step: Addition of 5 μL antibody and 5 μL streptavidin-XL665, read plate after 60 minutes. Data analysis of emission ratios according KinEASE assay protocol.
(§1) Kinase and assay components were adjusted to final concentrations according to kit protocol. For TYK2: 2 nM wt human TYK2, catalytic site (SignalChem/CAN), 1 μM HTRF KinEASE-TK Substrate-biotin, 1 μM ATP in 1× Kinase Buffer. For JAK1: 4 nM wt human JAK1, catalytic site (ThermoFisher/USA), 1 μM HTRF KinEASE-TK Substrate-biotin, 2.5 μM ATP in 1× Kinase Buffer. For JAK2: 1 nM wt human JAK2, catalytic site (SignalChem/CAN), 1 μM HTRF KinEASE-TK Substrate-biotin, 100 μM ATP in 1× Kinase Buffer.
as §1

T2 sequence (P23458 875-1153 limits assumed): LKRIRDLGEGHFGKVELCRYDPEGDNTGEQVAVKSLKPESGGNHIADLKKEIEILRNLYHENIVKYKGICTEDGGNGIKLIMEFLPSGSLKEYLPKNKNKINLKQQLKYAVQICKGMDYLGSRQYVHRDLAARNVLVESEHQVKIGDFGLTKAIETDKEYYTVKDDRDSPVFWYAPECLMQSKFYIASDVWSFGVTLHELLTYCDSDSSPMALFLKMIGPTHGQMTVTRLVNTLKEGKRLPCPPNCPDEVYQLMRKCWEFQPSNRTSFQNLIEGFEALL
T3 sequence (O60674 849-1124 limits assumed): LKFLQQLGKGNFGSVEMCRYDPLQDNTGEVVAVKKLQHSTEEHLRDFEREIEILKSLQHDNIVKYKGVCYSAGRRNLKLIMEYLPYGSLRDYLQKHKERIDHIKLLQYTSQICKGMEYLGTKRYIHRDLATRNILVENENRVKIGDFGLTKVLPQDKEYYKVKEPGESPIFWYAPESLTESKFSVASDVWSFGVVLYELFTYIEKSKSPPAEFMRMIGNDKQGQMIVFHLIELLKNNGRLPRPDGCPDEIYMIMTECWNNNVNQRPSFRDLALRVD

## NC(=O)c1nn(-c2c(Cl)cccc2Cl)nc1Nc1ccc(C(=O)N2CC(O)C2)cc1 [compound 124, 2-(2,6-dichlorophenyl)-5-((4-(3-hydroxyazetidine-1-carbonyl)phenyl)amino)-2H-1,2,3-triazole-4-carboxamide]
[1]
  IC50: < 10 nM
[2]
  IC50: 10 to 100 nM
[3]
  IC50: 100 to 1000 nM

## N#Cc1cccc(F)c1-n1nc(Nc2ccc(C(=O)N3CC[C@@H](F)C3)cc2)c(C(N)=O)n1 [compound 164, (R)-2-(2-cyano-6-fluorophenyl)-5-((4-(3-fluoropyrrolidine-1-carbonyl)phenyl)amino)-2H-1,2,3-triazole-4-carboxamide]
[1]
  IC50: 10 to 100 nM
[2]
  IC50: 10 to 100 nM
[3]
  IC50: 100 to 1000 nM

## NC(=O)c1nn(-c2c(Cl)cccc2Cl)nc1Nc1ccc(OC2CCNCC2)cc1 [Compound No. 120, 2-(2,6-dichlorophenyl)-5-((4-(piperidin-4-yloxy)phenyl)amino)-2H-1,2,3-triazole-4-carboxamide]
[1]
  IC50: 10 to 100 nM
[2]
  IC50: 10 to 100 nM
[3]
  IC50: 100 to 1000 nM

## CN=S1(=O)CCN(C(=O)c2ccc(Nc3nn(-c4c(Cl)cccc4Cl)nc3C(N)=O)cc2)CC1 [compound 171, 2-(2,6-dichlorophenyl)-5-((4-(1-(methylimino)-1-oxidothiomorpholine-4-carbonyl)phenyl)amino)-2H-1,2,3-triazole-4-carboxamide]
[1]
  IC50: < 10 nM
[2]
  IC50: < 10 nM
[3]
  IC50: 100 to 1000 nM

## NC(=O)c1nn(-c2c(Cl)ccc(F)c2Cl)nc1Nc1ccc(C(=O)N2CC[C@@H](F)C2)cc1 [compound 145, (R)-2-(2,6-dichloro-3-fluorophenyl)-5-((4-(3-fluoropyrrolidine-1-carbonyl)phenyl)amino)-2H-1,2,3-triazole-4-carboxamide]
[1]
  IC50: 10 to 100 nM
[2]
  IC50: < 10 nM
[3]
  IC50: 100 to 1000 nM

## NC(=O)c1nn(-c2c(Cl)ccc(F)c2F)nc1Nc1ccc(C(=O)N2CC[C@@H](F)C2)cc1 [compound 167, (R)-2-(6-chloro-2,3-difluorophenyl)-5-((4-(3-fluoropyrrolidine-1-carbonyl)phenyl)amino)-2H-1,2,3-triazole-4-carboxamide]
[1]
  IC50: 10 to 100 nM
[2]
  IC50: 10 to 100 nM
[3]
  IC50: 100 to 1000 nM

## Cn1nnnc1-c1ccc(Nc2cn(-c3c(Cl)cccc3Cl)nc2C(N)=O)cc1 [compound 238, 1-(2,6-dichlorophenyl)-4-((4-(1-methyl-1H-tetrazol-5-yl)phenyl)amino)-1H-pyrazole-3-carboxamide]
[1]
  IC50: < 10 nM
[2]
  IC50: 10 to 100 nM
[3]
  IC50: 100 to 1000 nM

## NC(=O)c1nn(-c2c(Cl)cccc2Cl)cc1Nc1ccc(C(=O)N2CCCC2)cc1 [compound 94, 1-(2,6-dichlorophenyl)-4-((4-(pyrrolidine-1-carbonyl)phenyl)amino)-1H-pyrazole-3-carboxamide]
[1]
  IC50: 10 to 100 nM
[2]
  IC50: 10 to 100 nM
[3]
  IC50: 100 to 1000 nM

## Cn1cnnc1-c1ccc(Nc2nn(-c3c(Cl)cccc3Cl)nc2C(N)=O)cc1 [compound 117, 2-(2,6-dichlorophenyl)-5-((4-(4-methyl-4H-1,2,4-triazol-3-yl)phenyl)amino)-2H-1,2,3-triazole-4-carboxamide]
[1]
  IC50: 10 to 100 nM
[2]
  IC50: 10 to 100 nM
[3]
  IC50: 100 to 1000 nM

## CN1CCC(Oc2ccc(Nc3nn(-c4c(Cl)cccc4Cl)nc3C(N)=O)cc2)CC1 [compound 114, 2-(2,6-dichlorophenyl)-5-((4-((1-methylpiperidin-4-yl)oxy)phenyl)amino)-2H-1,2,3-triazole-4-carboxamide]
[1]
  IC50: < 10 nM
[2]
  IC50: < 10 nM
[3]
  IC50: 100 to 1000 nM

## CC(C)n1ncnc1-c1ccc(Nc2cn(-c3c(Cl)cccc3Cl)nc2C(N)=O)cc1 [compound 90, 1-(2,6-dichlorophenyl)-4-((4-(1-isopropyl-1H-1,2,4-triazol-5-yl)phenyl)amino)-1H-pyrazole-3-carboxamide]
[1]
  IC50: 10 to 100 nM
[2]
  IC50: 100 to 1000 nM
[3]
  IC50: 100 to 1000 nM

## COCCCNC(=O)c1ccc(Nc2nn(-c3c(Cl)cccc3Cl)nc2C(N)=O)cc1 [compound 119, 2-(2,6-dichlorophenyl)-5-((4-((3-methoxypropyl)carbamoyl)phenyl)amino)-2H-1,2,3-triazole-4-carboxamide]
[1]
  IC50: 10 to 100 nM
[2]
  IC50: 10 to 100 nM
[3]
  IC50: 100 to 1000 nM

## N#CC1CN(C(=O)c2ccc(Nc3nn(-c4c(Cl)cccc4Cl)nc3C(N)=O)cc2)C1 [compound 107, 5-[4-(3-Cyano-azetidine-1-carbonyl)-phenylamino]-2-(2,6-dichloro-phenyl)-2H-[1,2,3]triazole-4-carboxylic acid amide]
[1]
  IC50: < 10 nM
[2]
  IC50: 100 to 1000 nM
[3]
  IC50: 100 to 1000 nM

## N=S1(=O)CCN(C(=O)c2ccc(Nc3nn(-c4c(Cl)cccc4Cl)nc3C(N)=O)cc2)CC1 [compound 169, 2-(2,6-dichlorophenyl)-5-((4-(1-imino-1-oxidothiomorpholine-4-carbonyl)phenyl)amino)-2H-1,2,3-triazole-4-carboxamide]
[1]
  IC50: < 10 nM
[2]
  IC50: < 10 nM
[3]
  IC50: 100 to 1000 nM

## NC(=O)c1nn(-c2c(F)ccc(F)c2Cl)nc1Nc1ccc(C(=O)N2CC[C@@H](F)C2)cc1 [compound 147, (R)-2-(2-chloro-3,6-difluorophenyl)-5-((4-(3-fluoropyrrolidine-1-carbonyl)phenyl)amino)-2H-1,2,3-triazole-4-carboxamide]
[1]
  IC50: 10 to 100 nM
[2]
  IC50: < 10 nM
[3]
  IC50: 100 to 1000 nM

## NC(=O)c1nn(-c2c(Cl)cccc2Cl)nc1Nc1ccc(-c2nnc3n2CCCC3)cc1 [compound 109, 2-(2,6-Dichloro-phenyl)-5-[4-(5,6,7,8-tetrahydro-[1,2,4]triazolo[4,3-a]pyridin-3-yl)-phenylamino]-2H-[1,2,3]triazole-4-carboxylic acid amide]
[1]
  IC50: < 10 nM
[2]
  IC50: 10 to 100 nM
[3]
  IC50: 100 to 1000 nM

## NC(=O)c1nn(-c2c(Cl)cccc2Cl)cc1Nc1ccc(-c2nncn2CC(F)(F)F)cc1 [compound 210, 1-(2,6-dichlorophenyl)-4-((4-(4-(2,2,2-trifluoroethyl)-4H-1,2,4-triazol-3-yl)phenyl)amino)-1H-pyrazole-3-carboxamide]
[1]
  IC50: 10 to 100 nM
[2]
  IC50: 100 to 1000 nM
[3]
  IC50: 100 to 1000 nM

## NC(=O)c1nn(-c2c(Cl)cccc2Cl)nc1Nc1ccc(C(=O)N2CCS(=O)(=O)CC2)cc1 [compound 163, 2-(2,6-dichlorophenyl)-5-((4-(1,1-dioxidothiomorpholine-4-carbonyl)phenyl)amino)-2H-1,2,3-triazole-4-carboxamide]
[1]
  IC50: < 10 nM
[2]
  IC50: < 10 nM
[3]
  IC50: 100 to 1000 nM

## N#Cc1cccc(Cl)c1-n1cc(Nc2ccc(C(=O)N3CCS(=O)(=O)CC3)cc2)c(C(N)=O)n1 [compound 457, 1-(2-chloro-6-cyanophenyl)-4-((4-(1,1-dioxidothiomorpholine-4-carbonyl)phenyl)amino)-1H-pyrazole-3-carboxamide]
[1]
  IC50: < 10 nM
[2]
  IC50: 10 to 100 nM
[3]
  IC50: 100 to 1000 nM

## NC(=O)c1nn(-c2c(Cl)cccc2Cl)cc1Nc1ccc(C(=O)N2CCS(=O)(=O)CC2)cc1 [compound 451, 1-(2,6-dichlorophenyl)-4-((4-(1,1-dioxidothiomorpholine-4-carbonyl)phenyl)amino)-1H-pyrazole-3-carboxamide]
[1]
  IC50: < 10 nM
[2]
  IC50: < 10 nM
[3]
  IC50: 100 to 1000 nM

## NC(=O)c1nn(-c2c(Cl)ccc(F)c2Cl)nc1Nc1ccc(C(=O)N2CCOCC2)cc1 [compound 138, 2-(2,6-dichloro-3-fluorophenyl)-5-((4-(morpholine-4-carbonyl)phenyl)amino)-2H-1,2,3-triazole-4-carboxamide]
[1]
  IC50: 10 to 100 nM
[2]
  IC50: < 10 nM
[3]
  IC50: 100 to 1000 nM
